# Experimental data published in article PMC4738272 (Scientific Reports, 2016).
# “Also recorded” adds a separate entry of the source. Like-named read-outs stand apart in the source and are kept apart here.
# What was measured:
# HepG2/C3A [1] = assay: Urea quantification, liver fraction of 4-organ system; assay type: cell-based, human; conditions: 4-organ co-culture under flow, 48 h drug treatment, vs control; DOX 5 μM, ATR 100 μM, APAP 5 mM, AMAP 5 mM
# HepG2/C3A [2] = assay: Human Serum Albumin quantification (ELISA), liver fraction of 4-organ system; assay type: cell-based; conditions: 4-organ co-culture under flow, 48 h drug treatment, vs control; DOX 5 μM, ATR 100 μM, VPA 2 mM, APAP 5 mM, AMAP 5 mM
# Method: Human Serum Albumin (HSA) production from the liver fraction was tracked throughout the co-culture, by measuring the HSA concentration in the supernatant of the culture as it represents liver protein anabolism. Samples were collected from the exchanged medium (1.2 mL) and stored at −20 °C until analysis. One freeze-thaw cycle occurred before samples were analyzed following manufacturers’ instructions provided in the ELISA Starter Accessory Kit (Bethyl Laboratories Inc, Cat #: E101). Samples were diluted as necessary in sample conjugate/diluent buffer to ensure readings measured within the range of the standard curve. The standard curve was prepared by serial dilutions of human reference serum in sample conjugate/diluent buffer (0–1600 ng/ml).
# Final HSA concentrations were calculated in an excel file by first removing the average OD reading measured for blanks from average sample and standard OD readings. Concentrations of standard dilutions were plotted against average OD values measured in XY scatter plots. A standard curve was created by adding an order of 2 polynomial trendline to XY scatter plots and selecting the option to display the equation of the trendline, as well as the R^2 value, on each scatter plot (for ease of analysis HSA sigmoidal curves were split into 3 standard curves with HSA concentration ranges of 0–200 ng/ml, 200–800 ng/ml and […]). Quadratic equations were rearranged to make X (sample HSA concentration) the unknown variant. Y values (OD values) and a/b/c constants generated from trendline equations were inputted into rearranged quadratic equations per assay. HSA concentrations calculated were corrected accordingly for any differences in culture final volumes, sample dilutions during assays and cells number.
# [3] = tested on: iPSc differentiated Cardiomyocytes; assay: Cardiac beating frequency from video recordings; assay type: cell-based, human; conditions: 4-organ co-culture under flow, 48 h drug treatment, day 7, vs control; ATR 100 μM, VPA 2 mM, APAP 5 mM
# Method: Seven or fourteen days after the co-culture, cardiac beating frequency was quantified from video recordings of three different areas of each of the cMEA surfaces, where the cardiomyocytes culture where located. Surfaces were located in a 37 °C bath platform containing co-culture medium with 50 mM HEPES on the stage of a Zeiss Axioscope 2FS upright microscope. Beats were counted in a period of 10 s, and the average number of 3 values was obtained. Drug effect was plotted as percentage of change compared to the control conditions.
# Human Skeletal Myofibers [4] = assay: Myotube stimulated contraction (binary: contracting or not); assay type: cell-based; conditions: 4-organ co-culture under flow, 48 h drug treatment, day 7, broad-field electrical stimulation, DOX 5 μM, ATR 100 μM, VPA 2 mM, APAP 5 mM, AMAP 5 mM
# Method: Myotube contraction in coverslips was evaluated after the co-culture was finalized. Individual surfaces were evaluated as previously reported in the group. Drugs effects were quantify in a binary code mode, cells were or were not contracting.
# neurons [5] = assay: Neuron electrophysiology recording (patch clamp); assay type: cell-based, human; conditions: 4-organ co-culture under flow, 48 h drug treatment, day 7, vs control, DOX 5 μM, ATR 100 μM, APAP 5 mM
# Source text: Electrophysiological properties of neuron cultures where recorded on the last day of co-culture following a previously described method. Values of firing, repetitive firing, spontaneous firing, inward sodium current, outward potassium current, action potential peak voltage and the resting membrane potential, characterized the mature functionality of neurons in the in vitro system. Drug alterations of the neuronal electrophysiology are discussed in this manuscript.
# Liver = tested on: Liver; set-up: method as in Literature; conditions: general toxic effects reported in the literature; ref Literature; cited from earlier work
# Muscle = tested on: Muscle; set-up: method as in Literature; conditions: general toxic effects reported in the literature; ref Literature; cited from earlier work
# Neurons [6] = tested on: Neurons; set-up: method as in Literature; conditions: general toxic effects reported in the literature; ref Literature; cited from earlier work
# Cardiomyocytes = tested on: Cardiomyocytes; set-up: method as in Literature; conditions: general toxic effects reported in the literature; ref Literature; cited from earlier work
# [7] = cited from earlier work; for Toxic plasma concentration: humans
# HepG2 = tested on: HepG2; set-up: method as in PMID 19107278; conditions: microfluidic system, double the concentration of APAP of this manuscript; cited from earlier work
# [8] = tested on: iPSc differentiated Cardiomyocytes; assay: MTT viability of cardiac module in 4-organ system; conditions: 4-organ co-culture under flow, serum-free medium, 48 h drug treatment, day 7, vs control, DOX 5 μM, ATR 100 μM, VPA 2 mM, APAP 5 mM, AMAP 5 mM
# Source text: (§1) The four organ in vitro systems were assembled, on day 0, by placing the corresponding surfaces cell side up in a specific chamber of the housing (liver coverslip into chamber 1, cardiac coverslips and cantilevers into chambers 2 and 4, muscle coverslips into chamber 5, and neuron coverslips into chamber 3 and they were then topped with the serum-free co-culture medium (1X Neurobasal Medium, 1X B27, 1X AB/AM, 1X Glutamax (all from Life Technologies)) before locking the system. Right after assembling, the medium was completely replaced with 4 mL of the co-culture defined serum-free medium and the systems placed on a rocking platform inside an incubator. Platforms were checked every day by inspecting for expected cell morphology inside the system and by replacing medium (1.2 mL total volume) from the two reservoirs (30% of the total volume was replaced) with fresh medium. Drug incubation was initiated on day 5 of the co-culture by addition of the drug through the reservoir closer to the liver chamber (no. 1), allowing a first contact of the drug with the liver. 20 μL of the drug stock solution (or vehicle) to achieve a working concentration in 4 mL of total volume in the platform was utilized. On day 6, after 24 hours of drug incubation, 6 μL of the drug stock solution (or vehicle) was added to the fresh medium exchange volume (1.2 mL). After 48 hour of drug incubation, on day 7, systems were disassembled to test organ functionality that same day. For mono-culture conditions, surfaces remained in a 12-well plated with 1 mL of the co-culture defined serum-free medium maintained by daily replacement of half volume.
# (§2) Seven days after the initiation of the co-culture, viability of each organ chamber, except for neurons, was evaluated through an MTT assay. […] Cell viability was measured at 570 nm in a Synergy HT plate reader and KC4 software. The results were expressed as the percentage of cell survival relative to the control (untreated or incubated with vehicle). The neuronal fraction viability was evaluated through morphological analysis throughout the co-culture experiment as the final coverslips were used for patch-clamp electrophysiology. Phase images (10X) where obtained every day of the co-culture. Neuronal viability was evaluated by cell morphology integrity and by cell count from day 1 to day 14.
# Human Skeletal Myofibers [9] = assay: MTT viability of skeletal muscle module in 4-organ system; conditions: 4-organ co-culture under flow, serum-free medium, 48 h drug treatment, day 7, vs control, DOX 5 μM, ATR 100 μM, VPA 2 mM, APAP 5 mM, AMAP 5 mM
# Source text: as §1, §2
# neurons [10] = assay: Neuronal viability by morphological analysis and cell count in 4-organ system; conditions: 4-organ co-culture under flow, serum-free medium, 48 h drug treatment, day 7, vs control; DOX 5 μM, ATR 100 μM, VPA 2 mM, APAP 5 mM, AMAP 5 mM
# Source text: as §1, §2
structure (smiles),measurement,setting,value
CC(=O)Nc1ccc(O)cc1 [Acetaminophen],"Urea production, increase",HepG2/C3A [1],52 ± 13%
same,"HSA (albumin) production, increase",HepG2/C3A [2],not affected
same,"Cardiomyocyte beating rate (beat frequency), increase",[3],27 ± 9% increase in beating frequency
same,Skeletal muscle loss of contractile ability (share of cultures in which contraction ceased),Human Skeletal Myofibers [4],37% loss of contractile ability
same,Skeletal muscle loss of contractile ability (share of cultures in which contraction ceased),Human Skeletal Myofibers [4]; listed as APAP,37%
same,Neuronal ion currents and firing of stimulated action potentials,neurons [5],no changes
same,Neuronal repetitive and spontaneous firing ability,neurons [5]; AMAP 5 mM,loss and lost
same,"Neuronal electrophysiology, overall effect","neurons [5]; VPA 2 mM, AMAP 5 mM",Electrophysiology affected
same,"Drug effects on cell functionality, Liver, Literature",Liver,Compromised
same,"Drug effects on cell viability, Liver, Literature",Liver,Toxicity reported
same,"Drug effects on cell functionality, Muscle, Literature",Muscle,Myo-protective effect
same,"Drug effects on cell viability, Muscle, Literature",Muscle,Myo-protective effect
same,"Drug effects on cell functionality, Neurons, Literature",Neurons [6],Toxicity not reported
same,"Drug effects on cell viability, Neurons, Literature",Neurons [6],Toxicity not reported
same,"Drug effects on cell functionality, Cardiomyocytes, Literature",Cardiomyocytes,Cardio-protective effect
same,"Drug effects on cell viability, Cardiomyocytes, Literature",Cardiomyocytes,Cardio-protective effect
same,"Therapeutic, and safe, plasma concentration",[7]; 500–1000 mg orally three times a day,low micromolar range
same,Toxic plasma concentration,[7]; after 24 hours,less than 50 μM
same,Toxic plasma concentration,[7]; first two hours after ingestion,around 2 mM
same,Reduction in HepG2 viability,HepG2,60%
same,"Cardiomyocyte viability, loss",[8],Toxicity not observed
same,"Cardiomyocyte viability, loss",[8]; listed as APAP,not significantly affected; also recorded: preserved (even improved)
same,"Skeletal muscle viability, loss",Human Skeletal Myofibers [9],Toxicity not observed
same,"Skeletal muscle viability, loss",Human Skeletal Myofibers [9]; listed as APAP,not significantly affected
same,"Neuronal cell viability, loss (cell loss by morphology/cell count)",neurons [10],50 ± 18% loss of cell viability
